Assay: Solubility tests of copper(I) complexes in organic solvents
Type: physicochemical
Conditions: for Löslichkeit (qualitative): effect of the unsymmetrical ligand m-Tolylphosphin s
Protocol: Bei Koordination an ein Kupferatom könnten die m-Tolyl-Gruppen jeweils auf zwei verschiedene Weisen gedreht vorliegen (Figur 5). Vermutlich wird auf dieses Weise die Packung im Festkörper gestört, wodurch eine höhere Löslichkeit erzielt wird. In der Wärme (60 °C) wurde beispielsweise für Komplex 1-I-s eine Löslichkeit von rund 40 mg mL^-1 erreicht; weitere Löslichkeitsdaten sind in Tabelle 1 aufgeführt.
Komplex 1-I-s zeigt neben einer guten Löslichkeit auch eine besonders hohe Quanteneffizienz, sowohl in Pulver (93%) als auch im Dünnfilm (90%). Interessanterweise kommt es bei der Filmpräparation dieser Verbindung zu nahezu keiner Verschiebung der Emissionswellenlänge (Film: 550 nm, Pulver: 547 nm). Offenbar liegt bereits im Festkörper eine Verzerrung ähnlich der Situation im Film vor. Die Struktur wird, wie oben erläutert wurde, durch die als sterisch anspruchsvolle Gruppen wirkenden Tolylreste stabilisiert. Tabelle 1: Löslichkeitstests für Komplex 1-I-s.

(MePyrPHOS)(Tris-m-tolyl-phosphin)2Cu2I2 [Komplex 1-I-s]
~40 mg/mL: Löslichkeit (In der Wärme (60 °C), solvent not stated)
Ja: Löslichkeit (1-Heptanol, Konzentration: 2,5 mg/mL) | Löslichkeit (1-Hexanol, Konzentration: 2,5 mg/mL) | Löslichkeit (Aceton, Konzentration: 5 mg/mL) | Löslichkeit (Aceton, Konzentration: 10 mg/mL) | Löslichkeit (Aceton, Konzentration: 2,5 mg/mL) | Löslichkeit (Acetonitril, Konzentration: 2,5 mg/mL) | Löslichkeit (Cyclooctan, Konzentration: 2,5 mg/mL) | Löslichkeit (Essigester, Konzentration: 5 mg/mL) | Löslichkeit (Essigester, Konzentration: 10 mg/mL) | Löslichkeit (Essigester, Konzentration: 2,5 mg/mL) | Löslichkeit (Mesitylen, Konzentration: 5 mg/mL) | Löslichkeit (Mesitylen, Konzentration: 10 mg/mL) | Löslichkeit (Mesitylen, Konzentration: 2,5 mg/mL) | Löslichkeit (O-Xylol, Konzentration: 5 mg/mL) | Löslichkeit (O-Xylol, Konzentration: 10 mg/mL) | Löslichkeit (O-Xylol, Konzentration: 2,5 mg/mL) | Löslichkeit (Tetralin, Konzentration: 5 mg/mL) | Löslichkeit (Tetralin, Konzentration: 10 mg/mL) | Löslichkeit (Tetralin, Konzentration: 2,5 mg/mL)
≤ 20 mg/mL: Löslichkeit (max.) (Mesitylen) | Löslichkeit (max.) (O-Xylol) | Löslichkeit (max.) (Tetralin)
Nein: Löslichkeit (Cyclooctan, Konzentration: 10 mg/mL)
Ja (Wärme): Löslichkeit (1-Heptanol, Konzentration: 5 mg/mL) | Löslichkeit (1-Heptanol, Konzentration: 10 mg/mL) | Löslichkeit (1-Hexanol, Konzentration: 5 mg/mL) | Löslichkeit (1-Hexanol, Konzentration: 10 mg/mL) | Löslichkeit (Acetonitril, Konzentration: 5 mg/mL) | Löslichkeit (Acetonitril, Konzentration: 10 mg/mL) | Löslichkeit (Cyclooctan, Konzentration: 5 mg/mL)
erhöhte Löslichkeit: Löslichkeit (qualitative)

(PyrPHOS)(tris-m-tolyl-phosphin)2Cu2I2 [Komplex 11-I-s]
erhöhte Löslichkeit: Löslichkeit (qualitative)

(Tris-(3-methyl-phenyl)phosphin)(4-tBu-pyridin)Cu2Br2 [E-Br-s]
erhöhte Löslichkeit: Löslichkeit (qualitative)

(Tris-(3-methyl-phenyl)phosphin)(4-tBu-pyridin)Cu2I2 [E-I-s]
erhöhte Löslichkeit: Löslichkeit (qualitative)
